In patent publication US11155547B1, “Compounds for and methods of treating diseases” (Alterity Therapeutics Limited, priority 2020, dated 2021):

What follows are compounds tested on human neuroblastoma line BE(2)-M17 (M17) cells (assay: Measurement of Fe efflux from cells (57Fe in media by ICP-MS)). Settings: Homo sapiens; M17 cells pre-loaded with 57Fe; compound 20 μM, 2 h; Fe in media as percentage increase relative to cell media in the absence of the compound; read-out: % Fe Efflux Range.
Assay type: cell-based
Protocol: Compounds of the current invention were assessed for their ability to efflux iron (Fe) from a cell using the following protocol. The human neuroblastoma line BE(2)-M17 (M17) cell cultures were acquired from Sigma Aldrich (Catalogue #: 95011816). M17 cells were maintained in Opti-MEM reduced serum media supplemented with 10% fetal bovine serum (Bovogen, SFBSF) and passaged twice weekly. Cells were cultured at 37° C. in the presence of 5% CO2. Culture supplies were sourced from Thermo Fisher unless otherwise stated. A solution of ^57Fe isotope was prepared by dissolving ^57Fe metal (>95% enrichment, Trace Sciences International) in concentrated HCl to give a final concentration of 573 mM. From this master solution, a 10 mM working solution was prepared in sterile water. The working solution was used within two months of preparation. M17 cells were loaded with iron initially by seeding into 48-well plates at a density of 0.15×10^6 cells per well in 0.5 mL media. After 48 h, old media was discarded. Fresh media was added supplemented from the 10 mM ^57Fe working solution to yield media containing 20 μM ^57Fe isotope. Cells received 0.2 mL of this ^57Fe enriched media and were returned to the incubator for 20 h. The ability of experimental compounds to efflux iron was determined by the dissolution of compounds in DMSO and diluted in Hanks' Balanced Salt Solution (HBSS) for treatment of M17 cells. After ^57Fe incubation, cells were rinsed twice with HBSS and treated with 0.15 ml trial compound for 2 h. Experimental substances were routinely screened at a concentration of 20 μM, however dilutions ranging from 1-40 μM were occasionally applied to further elucidate the properties of key compounds. All assays included a relevant vehicle (0.4%-0.8% DMSO) as well as a positive control. Following the treatment period, 0.1 mL of media was collected from cells and the extracellular ^57Fe content was analysed via inductively coupled mass spectrometry (ICP-MS, Agilent 7700×series instrument). […] After 2 h the Fe levels in the media were measured and the increase determined as a percentage increase relative to the cell media in the absence of the compound. [formula] Representative data is provided in Table 1 where the % Fe efflux for the specified compounds of the invention lie in the following ranges: A<30%, B 30-100%, C 100-150%; D>150%

Compared with `Oc1ccccc1-c1nc(-c2ccccn2)n2c1CCCC2` [Compound 11, 2-(3-(Pyridin-2-yl)-5,6,7,8-tetrahydroimidazo[1,5-a]pyridin-1-yl)phenol], `Oc1ccccc1-c1nc(-c2cccnc2O)c2n1CCCC2` [Compound 15, 3-(3-(2-hydroxyphenyl)-5,6,7,8-tetrahydroimidazo[1,5-a]pyridin-1-yl)pyridin-2-ol] is higher in activation at 20 µM: under 30% for the first, 100 to 150% for the second.

Compared with `Cc1ccc(O)c(-c2nc(-c3nc(C)ccc3O)c3n2CCCC3)c1` [Compound 5, 2-(3-(2-Hydroxy-5-methylphenyl)-5,6,7,8-tetrahydroimidazo[1,5-a]pyridin-1-yl)-6-methylpyridin-3-ol], `Cc1ccc(O)c(-c2nc(-c3cc(F)ccc3O)n3c2CCCC3)n1` [Compound 3, 2-(3-(5-Fluoro-2-hydroxyphenyl)-5,6,7,8-tetrahydroimidazo[1,5-a]pyridin-1-yl)-6-methylpyridin-3-ol] is lower in activation at 20 µM: over 150% for the first, 100 to 150% for the second.

First: Cc1ccc(O)c(-c2nc(-c3ccccc3O)c3n2CCCC3)c1 [Compound 8, 2-(1-(2-Hydroxyphenyl)-5,6,7,8-tetrahydroimidazo[1,5-a]pyridin-3-yl)-4-methylphenol]
Second: COC(=O)c1ccc(O)c(-c2nc(-c3ccccc3O)c3n2CCCC3)c1 [Compound 10, Methyl 4-hydroxy-3-(1-(2-hydroxyphenyl)-5,6,7,8-tetrahydroimidazo[1,5-a]pyridin-3-yl)benzoate]
The activation at 20 µM of the first is lower: under 30% for the first, 30 to 100% for the second.

First: Oc1ccncc1-c1nc(-c2ccccc2O)n2c1CCCC2 [Compound 29, 3-(3-(2-Hydroxyphenyl)-5,6,7,8-tetrahydroimidazo[1,5-a]pyridin-1-yl)pyridin-4-ol]
Second: Oc1ccncc1-c1nc(-c2cccc(F)c2O)n2c1CCCC2 [Compound 30, 3-(3-(3-Fluoro-2-hydroxyphenyl)-5,6,7,8-tetrahydroimidazo[1,5-a]pyridin-1-yl)pyridin-4-ol]
The activation at 20 µM of the first is lower: 100 to 150% for the first, over 150% for the second.

`CCN(CC)CCc1cccc(-c2nc(-c3ccncc3O)c3n2CCCC3)c1O` [Compound 22, 4-(3-(3-(2-(Diethylamino)ethyl)-2-hydroxyphenyl)-5,6,7,8-tetrahydroimidazo[1,5-a]pyridin-1-yl)pyridin-3-ol] and `Oc1ncccc1-c1nc(-c2cccc(Cl)c2O)n2c1CCCC2` [Compound 14, 3-(3-(3-Chloro-2-hydroxyphenyl)-5,6,7,8-tetrahydroimidazo[1,5-a]pyridin-1-yl)pyridin-2-ol] fall in the same range of activation at 20 µM: 100 to 150% for the first, 100 to 150% for the second.

First: Cc1ccc(O)c(-c2nc(-c3cccc(C)c3O)n3c2CCCC3)n1 [Compound 6, 2-(3-(2-Hydroxy-3-methylphenyl)-5,6,7,8-tetrahydroimidazo[1,5-a]pyridin-1-yl)-6-methylpyridin-3-ol]
Second: Cc1ccc(O)c(-c2nc(-c3cccc(F)c3O)n3c2CCCC3)n1 [Compound 2, 2-(3-(3-Fluoro-2-hydroxyphenyl)-5,6,7,8-tetrahydroimidazo[1,5-a]pyridin-1-yl)-6-methylpyridin-3-ol]
The activation at 20 µM of the first is lower: 100 to 150% for the first, over 150% for the second.

`Cc1ccc(O)c(-c2nc(-c3ccccc3O)n3c2CCC3)n1` [Compound 50, 2-(3-(2-Hydroxyphenyl)-6,7-dihydro-5H-pyrrolo[1,2-c]imidazol-1-yl)-6-methylpyridin-3-ol] and `Cc1ccc(O)c(-c2nc(-c3ccccc3O)n3c2CCCC3)n1` [Compound 1, 2-(3-(2-Hydroxyphenyl)-5,6,7,8-tetrahydroimidazo[1,5-a]pyridin-1-yl)-6-methylpyridin-3-ol] cannot be ordered by activation at 20 µM: over 150% for the first, over 150% for the second.

`Oc1ccccc1-c1nc(-c2ccccc2O)n2c1CCCC2` [Compound 7, 2,2′-(5,6,7,8-tetraHydroimidazo[1,5-a]pyridine-1,3-diyl)diphenol] and `Oc1ccccc1-c1nc(-c2c(O)cccc2F)n2c1CCCC2` [Compound 9, 3-Fluoro-2-(1-(2-hydroxyphenyl)-5,6,7,8-tetrahydroimidazo[1,5-a]pyridin-3-yl)phenol] cannot be ordered by activation at 20 µM: under 30% for the first, under 30% for the second.

First: Cc1ccc(O)c(-c2nc(-c3cccc(F)c3O)n3c2CCC3)n1 [Compound 59, 2-(3-(3-Fluoro-2-hydroxyphenyl)-6,7-dihydro-5H-pyrrolo[1,2-c]imidazol-1-yl)-6-methylpyridin-3-ol]
Second: Cc1ccc(O)c(-c2nc(-c3c(O)cccc3F)n3c2CCCC3)n1 [Compound 4, 2-(3-(2-Fluoro-6-hydroxyphenyl)-5,6,7,8-tetrahydroimidazo[1,5-a]pyridin-1-yl)-6-methylpyridin-3-ol]
The activation at 20 µM of the first is higher: over 150% for the first, 30 to 100% for the second.

First: Oc1ccccc1-c1nc(-c2cccc(CN3CCOCC3)c2O)n2c1CCCC2 [Compound 12, 2-(1-(2-Hydroxyphenyl)-5,6,7,8-tetrahydroimidazo[1,5-a]pyridin-3-yl)-6-(morpholinomethyl)phenol]
Second: Cc1ccc(O)c(-c2nc(-c3cccnc3O)c3n2CCCC3)c1 [Compound 13, 3-(3-(2-Hydroxy-5-methylphenyl)-5,6,7,8-tetrahydroimidazo[1,5-a]pyridine-1-yl)pyridine-2-ol]
The activation at 20 µM of the first is lower: under 30% for the first, 100 to 150% for the second.

`Oc1ccccc1-c1nc(-c2ccccc2O)n2c1CCC(C(F)(F)F)C2` (stereo not drawn) [Compound 36, 2,2′-(6-(Trifluoromethyl)-5,6,7,8-tetrahydroimidazo[1,5-a]pyridine-1,3-diyl)diphenol] and `Cc1ccc(O)c(-c2nc(-c3ccccc3O)c3n2CC(C(F)(F)F)CC3)c1` (stereo not drawn) [Compound 38, 2-(1-(2-Hydroxyphenyl)-6-(trifluoromethyl)-5,6,7,8-tetrahydroimidazo[1,5-a]pyridin-3-yl)-4-methylphenol] cannot be ordered by activation at 20 µM: under 30% for the first, under 30% for the second.

Compound `Cc1ccc(O)c(-c2nc(-c3ccccc3O)c3n2CC(C)CC3)c1` (stereo not drawn) [Compound 37, 2-(1-(2-Hydroxyphenyl)-6-methyl-5,6,7,8-tetrahydroimidazo[1,5-a]pyridin-3-yl)-4-methylphenol] has an activation at 20 µM of under 30%.

Same assay, conditions: M17 cells pre-loaded with 57Fe; compound 20 μM, 2 h; Fe in media as percentage increase relative to cell media in the absence of the compound

With `Oc1cnccc1-c1nc(-c2ccccc2O)n2c1CCCC2` [Compound 21, 4-(3-(2-Hydroxyphenyl)-5,6,7,8-tetrahydroimidazo[1,5-a]pyridin-1-yl)pyridin-3-ol] the “% Fe Efflux Range” value was “D (D>150%)”.
